Our source for the IC50 and inhibition values is patent publication US6534491B2, “Preparation and use of ortho-sulfonamido bicyclic heteroaryl hydroxamic acids as matrix metalloproteinase and tace inhibitors” (priority 1996, dated 2003).

Structures can show the parent of a compound that is named as a salt. Where two headings read alike, the source gives them in different places.

The target in one assay is MMP-9 (Homo sapiens, UniProt P14780). The assay can be described thus: MMP-9 inhibition (thiopeptide or fluorescent peptide substrate). Type of assay: biochemical.
The target of the next assay is MMP-13 (Homo sapiens, UniProt P45452). The assay can be described thus: MMP-13 inhibition (thiopeptide or fluorescent peptide substrate). Type of assay: biochemical.
The target of another assay is T1, MMP-1 (Homo sapiens, UniProt P03956).
T1 sequence (P03956 100-469): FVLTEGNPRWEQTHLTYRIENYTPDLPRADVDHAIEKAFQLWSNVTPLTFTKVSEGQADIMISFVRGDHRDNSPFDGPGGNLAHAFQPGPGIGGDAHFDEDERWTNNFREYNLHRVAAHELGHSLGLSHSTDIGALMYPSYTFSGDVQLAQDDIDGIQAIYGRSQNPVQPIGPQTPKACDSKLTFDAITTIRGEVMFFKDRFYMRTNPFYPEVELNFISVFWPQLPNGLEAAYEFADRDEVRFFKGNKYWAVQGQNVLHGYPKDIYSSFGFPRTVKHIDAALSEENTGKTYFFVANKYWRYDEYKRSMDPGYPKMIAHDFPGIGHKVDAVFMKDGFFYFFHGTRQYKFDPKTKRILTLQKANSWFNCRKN
Kind of assay: biochemical. The conditions noted are these: MMP-1 IC50.

In the next assay the target is TACE (Homo sapiens, UniProt P78536). Kind of assay: TACE inhibition (fluorescent peptidyl substrate). The settings on record: for inhibition at 1 µM: read-out: TACE % inhibition. It is filed as biochemical.
Chain of TACE (P78536 215-824): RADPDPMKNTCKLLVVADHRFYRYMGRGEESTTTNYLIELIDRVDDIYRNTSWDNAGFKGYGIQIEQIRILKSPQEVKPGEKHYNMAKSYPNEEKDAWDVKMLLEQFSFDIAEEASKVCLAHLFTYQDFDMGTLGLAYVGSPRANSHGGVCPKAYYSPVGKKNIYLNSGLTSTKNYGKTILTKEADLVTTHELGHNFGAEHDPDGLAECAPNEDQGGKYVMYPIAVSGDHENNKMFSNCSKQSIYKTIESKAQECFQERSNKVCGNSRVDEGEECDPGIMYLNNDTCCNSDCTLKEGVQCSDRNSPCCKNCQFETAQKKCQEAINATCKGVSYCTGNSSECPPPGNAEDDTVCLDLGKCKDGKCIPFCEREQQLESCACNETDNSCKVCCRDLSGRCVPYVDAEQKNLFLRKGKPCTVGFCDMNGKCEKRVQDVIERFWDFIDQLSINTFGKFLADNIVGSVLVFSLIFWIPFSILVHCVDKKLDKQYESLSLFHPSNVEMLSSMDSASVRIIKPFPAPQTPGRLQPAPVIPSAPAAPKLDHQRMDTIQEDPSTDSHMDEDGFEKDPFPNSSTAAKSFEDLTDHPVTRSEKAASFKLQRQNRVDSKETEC

Chain of MMP-9 (P14780 94-707): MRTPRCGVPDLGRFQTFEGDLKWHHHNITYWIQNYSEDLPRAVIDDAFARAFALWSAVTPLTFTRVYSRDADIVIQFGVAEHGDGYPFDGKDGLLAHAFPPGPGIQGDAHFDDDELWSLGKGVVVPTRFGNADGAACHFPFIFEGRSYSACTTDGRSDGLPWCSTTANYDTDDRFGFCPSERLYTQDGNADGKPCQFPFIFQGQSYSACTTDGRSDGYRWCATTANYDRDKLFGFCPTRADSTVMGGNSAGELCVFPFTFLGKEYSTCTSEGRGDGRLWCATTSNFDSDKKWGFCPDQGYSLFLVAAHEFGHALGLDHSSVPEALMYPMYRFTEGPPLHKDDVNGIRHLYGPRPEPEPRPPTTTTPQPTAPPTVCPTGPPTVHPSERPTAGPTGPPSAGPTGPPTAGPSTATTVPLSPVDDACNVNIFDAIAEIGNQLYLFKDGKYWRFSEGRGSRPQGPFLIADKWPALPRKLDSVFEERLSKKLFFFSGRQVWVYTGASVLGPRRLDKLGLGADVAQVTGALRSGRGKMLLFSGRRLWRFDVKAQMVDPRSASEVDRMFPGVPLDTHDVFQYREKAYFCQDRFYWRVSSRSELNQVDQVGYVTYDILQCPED
Protocol for MMP-13: (§1) The enzyme activity is measured by the rate of the color increase. The thiopeptide substrate is made up fresh as a 20 mM stock in 100% DMSO and the DTNB is dissolved in 100% DMSO as a 100 mM stock and stored in the dark at room temperature. Both the substrate and DTNB are diluted together to 1 mM with substrate buffer (50 mM HEPES pH 7.5, 5 mM CaCl2) before use. The stock of enzyme is diluted with buffer (50 mM HEPES, pH 7.5, 5 mM CaCl2, 0.02% Brij) to the desired final concentration.
(§2) Alternatively, a fluorescent peptide substrate is used. In this test procedure, the peptide substrate contains a fluorescent group and a quenching group. Upon cleavage of the substrate by an MMP, the fluorescence that is generated is quantitated on the fluorescence plate reader. The assay is run in HCBC assay buffer (50 mM HEPES, pH 7.0, 5 mM Ca^+2, 0.02% Brij, 0.5% Cysteine), with human recombinant MMP-1, MMP-9, or MMP-13. The substrate is dissolved in methanol and stored frozen in 1 mM aliquots. For the assay, substrate and enzymes are diluted in HCBC buffer to the desired concentrations. Compounds are added to the 96 well plate containing enzyme and the reaction is started by the addition of substrate.
(§3) For either the thiopeptide or fluorescent peptide test procedures, the slope of the line is calculated and represents the reaction rate. The linearity of the reaction rate is confirmed (r^2>0.85). The mean (x±sem) of the control rate is calculated and compared for statistical significance (p<0.05) with drug-treated rates using Dunnett's multiple comparison test.
Protocol for MMP-9: as §1, §2, §3
Protocol for TACE: Using 96-well black microtiter plates, each well receives a solution composed of 10 μL TACE (final concentration 1 μg/mL), 70 μL Tris buffer, pH 7.4 containing 10% glycerol (final concentration 10 mM), and 10 μL of test compound solution in DMSO (final concentration 1 μl M, DMSO concentration <1%) and incubated for 10 minutes at room temperature.
The reaction is read (excitation 340 nm, emission 420 nm) for 10 min. and the increase in fluorescence over time is plotted as a linear line. The slope of the line is calculated and represents the reaction rate.
The linearity of the reaction rate is confirmed (r^2>0.85). The mean (x±sem) of the control rate is calculated and compared for statistical significance (p<0.05) with drug-treated rates using Dunnett's multiple comparison test.

Consider `CCN(c1c(C(=O)NO)cnc2ccc(C#Cc3ccccc3)cc12)S(=O)(=O)c1ccc(OC)cc1` [Example 34, 4-[Ethyl-(4-methoxy-benzenesulfonyl)-amino]-6-phenylethynyl-quinoline-3-carboxylic acid hydroxyamide], for which the IC50 (in general, the concentration that inhibits the measured activity by half) at MMP-9 (read-out: MMP-9 IC50) is 9 nM; on MMP-13, 12 nM; against MMP-1, 301 nM; against TACE it was 20 nM.

For `COc1ccc(S(=O)(=O)N(Cc2cccnc2)c2c(C(=O)NO)cnc3c2cnn3-c2ccccc2)cc1` [Example 64, 4-[(4-Methoxybenzenesulfonyl)pyridin-3-ylmethylamino]-1-phenyl-1H-pyrazolo[3,4-b]pyridine-5-carboxylic acid, hydroxyamide, hydrochloride], the values for the IC50 on MMP-9 (read-out: MMP-9 IC50), at MMP-13 and at MMP-1 were 5.5 nM, 19 nM and 913 nM, respectively.

`COc1ccc(S(=O)(=O)N(Cc2ccccc2)c2c(C(=O)NO)cnc3c(C(C)C)cccc23)cc1` [Example 20, 4-[Benzyl-(4-methoxybenzenesulfonyl)-amino]-8-(1-methylethyl)-quinoline-3-carboxylic acid hydroxyamide]: the IC50 came to 6 nM on MMP-9 (read-out: MMP-9 IC50), 9 nM on MMP-13, 344 nM at MMP-1 and 589 nM against TACE.

As to `COc1ccc(S(=O)(=O)N(C)c2c(C(=O)NO)cnc3c(Br)cccc23)cc1` [Example 31, 4-[Methyl-(4-methoxy-benzenesulfonyl)-amino]-8-bromo-quinoline-3-carboxylic acid hydroxyamide], the IC50 was 2 nM on MMP-13, 225 nM against MMP-1 and 80 nM on TACE.

On to `COc1ccc(S(=O)(=O)N(Cc2cccnc2)c2c(C(=O)NO)cnc3cc(C)nn23)cc1` [Example 88, 7-[(4-Methoxybenzenesulfonyl)pyridin-3-ylmethylamino]-2-methylpyrazolo[1,5-a]pyrimidine-6-carboxylic Acid, Hydroxyamide], for which the IC50 at MMP-9 (read-out: MMP-9 IC50) is 10.4 nM; at MMP-13, 18.7 nM; on MMP-1, 643 nM. For the same molecule, on TACE (at 1 μM concentration), the inhibition (as a rule, the drop in the measured response relative to a control, in per cent) at 1 µM worked out at 40.5%.

With `CN(c1c(C(=O)NO)cnc2ccc(I)cc12)S(=O)(=O)c1ccc(Oc2ccncc2)cc1` [Example 32, 4-{Methyl-[4-(pyridin-4-yloxy)-benzenesulfonyl]-amino}-6-iodo-quinoline-3-carboxylic acid hydroxyamide], the IC50 came to 1 nM at MMP-9 (read-out: MMP-9 IC50), 1 nM on MMP-13, 456 nM on MMP-1 and 24 nM against TACE.

Consider `COc1ccc(S(=O)(=O)N(Cc2cccnc2)c2c(C(=O)NO)cnc3c(-c4ccccc4)cccc23)cc1` [Example 40, 4-[(4-Methoxy-benzenesulfonyl)-pyridin-3-ylmethyl-amino]-8-phenyl-quinoline-3-carboxylic acid hydroxyamide], for which the IC50 on MMP-9 (read-out: MMP-9 IC50) was 3 nM; at MMP-13 it was 4 nM; at MMP-1 it was 151 nM; at TACE it was 120 nM.

For the molecule `COc1ccc(S(=O)(=O)N(Cc2ccccc2)c2c(C(=O)NO)cnc3c(C)cccc23)cc1` [Example 18, 4-[Benzyl-(4-methoxybenzenesulfonyl)-amino]-8-methyl-quinoline-3-carboxylic acid hydroxyamide], the IC50 on MMP-13 is 26 nM; against TACE it was 627 nM.

`COc1ccc(S(=O)(=O)N(Cc2cccnc2)c2c(C(=O)NO)cnc3c2c(C)nn3-c2ccccc2)cc1` [Example 67, 4-[(4-Methoxybenzenesulfonyl)pyridin-3-ylmethylamino]-1phenyl-3-methyl-1H-pyrazolo[3,4-b]pyridine-5-carboxylic acid, hydroxyamide] had an IC50 against MMP-1 of 96 nM.

For `COc1ccc(S(=O)(=O)N(Cc2ccccc2)c2c(C(=O)NO)cnc3ccc(C(F)(F)F)cc23)cc1` [Example 15, 4-[Benzyl-(4-methoxy-benzenesulfonyl)-amino]-6-trifluoromethyl-quinoline-3-carboxylic acid hydroxyamide], the IC50 at MMP-9 (read-out: MMP-9 IC50) is 25 nM; at MMP-13 it was 12 nM. For the same molecule, the inhibition at 1 µM at TACE (at 1 μM concentration) came out at 7%.

On to `CCc1cccc2c(N(Cc3ccccc3)S(=O)(=O)c3ccc(OC)cc3)c(C(=O)NO)cnc12` [Example 19, 4-[Benzyl-(4-methoxybenzenesulfonyl)-amino]-8-ethyl-quinoline-3-carboxylic acid hydroxyamide], for which the IC50 on MMP-9 (read-out: MMP-9 IC50) was found to be 2 nM; at MMP-13, 4 nM; against TACE, 314 nM.

For the molecule `COc1ccc(S(=O)(=O)N(Cc2ccccc2)c2c(C(=O)NO)cnc3cc(C(F)(F)F)ccc23)cc1` [Example 11, 4-[Benzyl-(4-methoxy-benzenesulfonyl)-amino]-7-trifluoromethyl-quinoline-3-carboxylic acid hydroxyamide], the 50% inhibitory concentration (IC50) was 11 nM on MMP-9 (read-out: MMP-9 IC50), 7 nM at MMP-13 and greater than 1000 nM against TACE.

Consider `COc1ccc(S(=O)(=O)N(Cc2cccnc2)c2c(C(=O)NO)cnc3c(I)cccc23)cc1` [Example 39, 4-[(4-Methoxy-benzenesulfonyl)-pyridin-3-ylmethyl-amino]-8-iodo-quinoline-3-carboxylic acid hydroxyamide], for which the IC50 on MMP-9 (read-out: MMP-9 IC50) worked out at 2 nM; on MMP-13, 2 nM; against TACE, 53 nM.

Consider `COc1ccc(S(=O)(=O)N(Cc2cccnc2)c2c(C(=O)NO)cnc3snc(C)c23)cc1` [Example 86, 4-[(4-Methoxybenzenesulfonyl)pyridin-3-ylmethylamino]-3-methylisothiazolo[5,4-b]pyridine-5-carboxylic Acid, Hydroxyamide], for which the IC50 at MMP-9 (read-out: MMP-9 IC50) stood at 6.9 nM; against MMP-1 it was 131 nM.

Take `O=C(NO)c1cnc2cc(C(F)(F)F)ccc2c1N(Cc1cccnc1)S(=O)(=O)c1ccc(-c2ccccc2)cc1` [Example 42, 4-[(Biphenyl-4-sulfonyl)-pyridin-3-ylmethyl-amino]-7-trifluoromethyl-quinoline-3-carboxylic acid hydroxyamide]: the values for the IC50 on MMP-9 (read-out: MMP-9 IC50) and on MMP-1 were 874 nM and 5200 nM, respectively.

In the case of `C=Cc1cccc2c(N(CC)S(=O)(=O)c3ccc(OC)cc3)c(C(=O)NO)cnc12` [Example 29, 4-[Ethyl-(4-methoxy-benzenesulfonyl)-amino]-8-vinyl-quinoline-3-carboxylic acid hydroxyamide], the IC50 on MMP-9 (read-out: MMP-9 IC50) was 5 nM; against MMP-13, 4 nM; against MMP-1, 200 nM.

As for `COc1ccc(S(=O)(=O)N(Cc2ccccc2)c2c(C(=O)NO)cnc3cc(Br)ccc23)cc1` [Example 14, 4-[Benzyl-(4-methoxy-benzenesulfonyl)-amino]-7-bromo-quinoline-3-carboxylic acid hydroxyamide], the IC50 turned out to be 8 nM on MMP-9 (read-out: MMP-9 IC50) and 6 nM on MMP-13. Besides, the inhibition at 1 µM at TACE (at 1 μM concentration) worked out at 24%.

Consider `Cc1nn(C)c2ncc(C(=O)NO)c(N(C)S(=O)(=O)c3ccc(Oc4ccncc4)cc3)c12` [91(HC1), 4-{Methyl-[4-(4-pyridinyloxy)benzenesulfonyl]amino}-1,3-dimethyl-1H-pyrazolo[3,4-b]pyridine-5-carboxylic Acid, Hydroxyamide], for which the concentration for half-maximal inhibition (IC50) at MMP-9 (MMP-9 IC50) amounted to 1.8 nM. In addition, the inhibition at 1 µM at TACE turned out to be 38.7%.

Consider `COc1ccc(S(=O)(=O)N(Cc2cccnc2)c2c(C(=O)NO)cnc3c2cnn3-c2ccccc2)cc1` [Example 63, 4-[(4-Methoxybenzenesulfonyl)pyridin-3-ylmethylamino]-1-phenyl-1H-pyrazolo[3,4-b]pyridine-5-carboxylic acid, hydroxyamide], for which the values for the IC50 at MMP-9 (read-out: MMP-9 IC50), on MMP-13 and at MMP-1 were 6.8 nM, 23 nM and 721 nM, respectively.
